In ChEMBL document CHEMBL1133832, “Synthesis of the first example of a C2-C3/C2'-C3'-endo unsaturated pyrrolo[2,1-c][1,4]benzodiazepine dimer” (Bioorg Med Chem Lett, 2001):

Legend:
[1] = Resistance factor (IC50 resistant/ parent); type: functional
A2780 [2] = assay: Dose of required to inhibit growth of cisplatin resistant human ovarian carcinoma (A2780 cisR) cell line with compound free controls as measured by the sulforhodamine B growth delay assay; type: functional, cell-based
A2780 [3] = assay: Dose of required to inhibit growth of human ovarian carcinoma (A2780) cell line with compound free controls as measured by the sulforhodamine B growth delay assay; type: functional, cell-based

SMILES	RF [1]	IC50 (A2780 [2])	IC50 (A2780 [3])
COC(=O)CC1=CN2C(=O)c3cc(OC)c(OCCCOc4cc5c(cc4OC)C(=O)N4C=C(CC(=O)OC)C[C@H]4C=N5)cc3N=C[C@@H]2C1	10.7	58 nM	5.4 nM
C=C1C[C@H]2C=Nc3cc(OCCCOc4cc5c(cc4OC)C(=O)N4CC(=C)C[C@H]4C=N5)c(OC)cc3C(=O)N2C1 [SJG-136]	1	0.024 nM	0.0225 nM
COc1cc2c(cc1OCCCOc1cc3c(cc1OC)C(=O)N1CCC[C@H]1C=N3)N=C[C@@H]1CCCN1C2=O	29.2		
